Results taken from publication PMC7666214, “Kinetic insights into the peroxygenase activity of cellulose-active lytic polysaccharide monooxygenases (LPMOs)” (Nature Communications, 2020).

Target: T1, HRP (Armoracia rusticana, UniProt P00433)
T1 construct: gene PRXC1A; commercial horseradish peroxidase, used as purchased
T1 sequence (P00433 31-338): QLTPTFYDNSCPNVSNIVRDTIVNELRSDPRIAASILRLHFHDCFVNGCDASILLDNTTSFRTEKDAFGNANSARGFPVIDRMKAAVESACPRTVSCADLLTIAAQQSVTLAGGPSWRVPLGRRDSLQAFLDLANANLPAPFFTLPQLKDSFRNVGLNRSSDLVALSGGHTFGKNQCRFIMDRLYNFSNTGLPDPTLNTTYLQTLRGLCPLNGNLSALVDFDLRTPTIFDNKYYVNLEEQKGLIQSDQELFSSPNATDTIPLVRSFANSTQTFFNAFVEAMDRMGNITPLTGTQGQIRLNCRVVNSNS
Assay: absorbance at […] nm (resorufin)
Assay type: biochemical
Settings: H2O2 co-substrate, Bis-Tris 50 mM pH 6.1, 25 °C; ping-pong

CC(=O)N1c2ccc(O)cc2Oc2cc(O)ccc21 [AR, N-acetyl-3,7-dihydroxyphenoxazine]
absorbance at 570 nm (resorufin): The kinetics of HRP with the AR substrate was consistent with the ping-pong mechanism
